± gives the standard deviation of the averaged measurements.
Columns and labels:
Test in all cases: level (log10 ratio to DMSO vehicle control); higher = higher biomarker level / cell amount than vehicle control
Conditions in all cases: in DMSO
[1] = compound: O=C(O)C(F)(F)OC(F)(F)C(F)(F)OC(F)(F)C(F)(F)C(F)(F)C(F)(F)F [Perfluoro-3,6-dioxadecanoic acid]
Experimental: (§1)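 BioMAP Diversity Plus panel of 12 human primary cell co-culture systems (3C, 4H, LPS, SAg, BT, BF4T, BE3C, CASM3C, HDF3CGF, KF3CT, MyoF, Mphg). Compounds were added 1 h before stimulation and left for 24 h (MyoF 48 h; BT 72 h for soluble read-outs or 6 d for IgG). Biomarkers were read by ELISA, cytotoxicity by SRB, PBMC viability and proliferation by Alamar Blue. Each well value was divided by the mean of 8 DMSO control wells on the same plate and log10 transformed; duplicate blinded samples were tested at 4 concentrations.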

[2] = compound: OCC(F)(F)C(F)(F)C(F)(F)C(F)(F)C(F)(F)C(F)F [1H,1H,7H-Dodecafluoro-1-heptanol]
Experimental: as §1

[3] = compound: FC(F)(F)C(F)(F)C(F)(F)C(F)(F)C(F)(F)C(F)(F)C(F)(F)CCI [1-Iodo-1H,1H,2H,2H-perfluorononane]
Experimental: as §1

[4] = compound: CNS(=O)(=O)C(F)(F)C(F)(F)C(F)(F)C(F)(F)C(F)(F)C(F)(F)C(F)(F)C(F)(F)F [N-Methylperfluorooctanesulfonamide]
Experimental: as §1

[5] = compound: O=C(O)C(F)(F)C(F)(F)C(F)(F)C(F)(F)C(F)(F)C(F)(F)C(F)(F)C(F)(F)C(F)(F)C(F)(F)C(F)(F)C(F)(F)C(F)(F)F [Perfluorotetradecanoic acid]
Experimental: as §1

[6] = compound: O=C(O)CCC(F)(F)C(F)(F)C(F)(F)C(F)(F)C(F)(F)F [2H,2H,3H,3H-Perfluorooctanoic acid]
Experimental: as §1

[7] = compound: C=C(C)C(=O)OCC(F)(F)C(F)(F)C(F)(F)C(F)(F)C(F)(F)C(F)(F)C(F)(F)F
Experimental: as §1

Row | Test System | level (log10) ([1]; 6700 nM) | level (log10) ([1]; 20000 nM) | level (log10) ([1]; 60000 nM) | level (log10) ([2]; 6700 nM) | level (log10) ([2]; 20000 nM) | level (log10) ([2]; 60000 nM) | level (log10) ([3]; 6700 nM) | level (log10) ([3]; 20000 nM) | level (log10) ([4]; 6700 nM) | level (log10) ([4]; 20000 nM) | level (log10) ([4]; 60000 nM) | level (log10) ([5]; 6700 nM) | level (log10) ([5]; 20000 nM) | level (log10) ([6]; 6700 nM) | level (log10) ([6]; 20000 nM) | level (log10) ([6]; 60000 nM) | level (log10) ([7]; 6700 nM) | level (log10) ([7]; 20000 nM)
1 | BF4T:IL-1alpha | 0.008 ± 0.0057 | 0.0015 ± 0.00071 | -0.0055 ± 0.005 | -0.006 ± 0.024 | -0.006 ± 0.0099 | -0.0085 ± 0.012 | -0.011 ± 0.0042 | 0.033 ± 0.031 | 0.0065 ± 0.0078 | 0.0005 ± 0.015 | 0.0285 ± 0.049 | -0.014 ± 0.013 | 0.0235 ± 0.032 | -0.0035 ± 0.0078 | -0.0065 ± 0.016 | 0.017 ± 0.021 | -0.0175 ± 0.025 | 0.006 ± 0.0099
2 | BF4T:Keratin 8/18 | -0.0125 ± 0.0064 | -0.0225 ± 0.011 | 0.004 ± 0.033 | -0.0025 ± 0.0021 | -0.0055 ± 0.012 | 0.004 ± 0.014 | -0.016 ± 0.052 | -0.0135 ± 0.0092 | -0.02 ± 0.0042 | -0.0185 ± 0.013 | 0.0135 ± 0.023 | -0.0135 ± 0.015 | 0.0195 ± 0.032 | -0.0015 ± 0.015 | -0.0055 ± 0.0021 | 0.005 ± 0.024 | 0.014 ± 0.0028 | -0.003 ± 0.0014
3 | BF4T:MMP-1 | -0.046 ± 0.013 | 0.01 ± 0.037 | 0.0625 ± 0.015 | 0.0095 ± 0.04 | 0.0145 ± 0.037 | 0.0245 ± 0.0092 | 0.001 ± 0.035 | 0.016 ± 0.033 | 0.012 ± 0.02 | 0.0105 ± 0.015 | -0.0105 ± 0.044 | 0.0015 ± 0.00071 | 0.013 ± 0.0028 | -0.003 ± 0.0042 | 0.001 ± 0.023 | 0.005 ± 0.021 | -0.0075 ± 0.015 | 0.016 ± 0.011
4 | BF4T:MMP-3 | 0.008 ± 0.0057 | 0.11 ± 0.015 | 0.161 ± 0.037 | -0.01 ± 0.034 | -0.012 ± 0.038 | 0.001 ± 0.04 | 0.0185 ± 0.013 | 0.011 ± 0.0014 | 0.0015 ± 0.046 | 0.012 ± 0.052 | 0.044 ± 0.064 | 0.027 ± 0.04 | 0.0475 ± 0.066 | -0.0015 ± 0.019 | 0.0025 ± 0.0035 | 0.0235 ± 0.066 | 0.002 ± 0.023 | -0.007 ± 0.018
5 | BF4T:MMP-9 | -0.035 ± 0.0057 | -0.0215 ± 0.0064 | -0.051 ± 0.02 | -0.0055 ± 0.03 | -0.011 ± 0.027 | 0.0095 ± 0.046 | 0.007 ± 0.044 | -0.0065 ± 0.028 | -0.0095 ± 0.011 | 0.008 ± 0.0014 | -0.021 ± 0.045 | -0.0165 ± 0.047 | 0 ± 0.035 | -0.0095 ± 0.03 | -0.022 ± 0.027 | 0.015 ± 0.018 | 0.015 ± 0.0071 | 0.0165 ± 0.005
6 | BF4T:PAI-I | -0.057 ± 0.011 | -0.0575 ± 0.005 | -0.054 ± 0.042 | 0.0055 ± 0.005 | -0.0035 ± 0.013 | 0.0105 ± 0.013 | -0.0005 ± 0.013 | -0.013 ± 0.011 | 0.0005 ± 0.018 | 0.0015 ± 0.028 | 0.0285 ± 0.033 | 0.014 ± 0.0028 | 0.0245 ± 0.029 | -0.005 ± 0.014 | -0.0155 ± 0.016 | -0.024 ± 0.014 | 0.0195 ± 0.022 | 0.0135 ± 0.019
7 | BF4T:SRB | -0.024 ± 0.0014 | -0.023 ± 0.0057 | -0.053 ± 0.0085 | -0.007 ± 0.0028 | -0.01 | -0.0005 ± 0.005 | -0.001 ± 0.0042 | 0.001 ± 0.0042 | -0.016 ± 0.0071 | -0.021 ± 0.0042 | -0.0115 ± 0.013 | 0.0025 ± 0.0092 | 0.001 ± 0.0071 | -0.0005 ± 0.0078 | -0.003 ± 0.013 | -0.005 ± 0.0028 | 0.0005 ± 0.0078 | -0.005 ± 0.011
8 | BF4T:tPA | -0.051 ± 0.0014 | -0.0565 ± 0.026 | 0.0105 ± 0.05 | 0.0045 ± 0.0078 | -0.0025 ± 0.00071 | 0.01 ± 0.011 | 0.0185 ± 0.0064 | -0.0135 ± 0.0064 | 0.0145 ± 0.011 | 0.0325 ± 0.03 | 0.0515 ± 0.019 | -0.0015 ± 0.019 | 0.0015 ± 0.049 | -0.014 ± 0.0014 | -0.023 ± 0.0085 | -0.0535 ± 0.042 | 0.0085 ± 0.0035 | -0.0115 ± 0.021
9 | BF4T:uPA | 0.0105 ± 0.005 | 0.008 ± 0.013 | 0.025 ± 0.031 | -0.0125 ± 0.019 | -0.0145 ± 0.0021 | -0.002 ± 0.0014 | -0.011 ± 0.035 | -0.012 ± 0.033 | 0.0055 ± 0.0064 | 0.01 ± 0.014 | 0.0385 ± 0.028 | 0.0075 ± 0.0078 | 0.017 ± 0.0028 | 0.0015 ± 0.015 | -0.003 ± 0.03 | -0.008 ± 0.013 | 0.0015 ± 0.032 | -0.0055 ± 0.005
10 | BT:B cell Proliferation | 0.012 ± 0.0071 | 0.0415 ± 0.019 | 0.055 ± 0.011 | -0.014 ± 0.0028 | -0.035 ± 0.0014 | -0.04 ± 0.02 | 0.0135 ± 0.029 | 0.0045 ± 0.015 | 0.006 ± 0.0028 | -0.007 ± 0.023 | -0.0195 ± 0.03 | -0.0055 ± 0.023 | -0.0035 ± 0.028 | 0.0515 ± 0.028 | 0.078 ± 0.059 | 0.05 ± 0.05 | -0.005 ± 0.021 | 0.0115 ± 0.0078
11 | BT:PBMC Cytotoxicity | 0.017 ± 0.028 | 0.0265 ± 0.0021 | 0.0915 ± 0.005 | -0.0155 ± 0.0021 | -0.016 ± 0.013 | -0.049 ± 0.0028 | 0.0115 ± 0.0035 | 0.0115 ± 0.011 | 0.0045 ± 0.019 | 0.016 ± 0.0099 | 0.0445 ± 0.011 | -0.01 ± 0.0042 | 0.0305 ± 0.059 | 0.03 ± 0.021 | 0.0185 ± 0.033 | 0.019 ± 0.017 | 0.0145 ± 0.025 | 0.0105 ± 0.029
12 | BT:Secreted IgG | 0.0295 ± 0.012 | 0.0235 ± 0.033 | -0.0365 ± 0.0064 | 0.014 ± 0.025 | -0.01 ± 0.028 | -0.0275 ± 0.03 | -0.0075 ± 0.06 | 0.0115 ± 0.074 | 0.001 ± 0.0028 | -0.0745 ± 0.0092 | -0.306 ± 0.21 | -0.029 ± 0.072 | 0.001 ± 0.03 | 0.016 ± 0.0028 | -0.033 ± 0.098 | -0.212 ± 0.17 | 0.021 ± 0.055 | 0.024 ± 0.013
13 | BT:sIL-2 | 0.0465 ± 0.036 | 0.0285 ± 0.16 | -0.011 ± 0.095 | 0.026 ± 0.013 | -0.0265 ± 0.005 | -0.025 ± 0.045 | 0.0055 ± 0.0035 | -0.0045 ± 0.019 | -0.0385 ± 0.073 | -0.0105 ± 0.032 | 0.0385 ± 0.083 | 0.0535 ± 0.011 | 0.0415 ± 0.069 | -0.0225 ± 0.036 | 0.0065 ± 0.044 | -0.05 ± 0.072 | 0.012 ± 0.0099 | 0.0075 ± 0.047
14 | BT:sIL-6 | 0.0375 ± 0.029 | 0.0265 ± 0.039 | -0.058 ± 0.033 | 0.007 ± 0.085 | -0.037 ± 0.014 | -0.113 ± 0.068 | 0.009 ± 0.017 | -0.0575 ± 0.042 | -0.0045 ± 0.04 | 0.003 ± 0.0042 | -0.083 ± 0.03 | -0.0615 ± 0.052 | -0.0545 ± 0.13 | 0.003 ± 0.011 | -0.0345 ± 0.013 | -0.0825 ± 0.032 | 0.016 ± 0.0057 | -0.019 ± 0.059
15 | BT:sIL-17A | 0.034 ± 0.12 | 0.045 ± 0.22 | -0.147 ± 0.065 | -0.182 ± 0.044 | -0.091 ± 0.14 | -0.174 ± 0.16 | 0.0035 ± 0.1 | -0.0305 ± 0.15 | 0.151 ± 0.14 | -0.065 ± 0.0085 | -0.0925 ± 0.3 | -0.111 ± 0.021 | -0.059 ± 0.16 | 0.0035 ± 0.021 | -0.199 ± 0.028 | -0.231 ± 0.099 | 0.0535 ± 0.073 | -0.0375 ± 0.22
16 | BT:sIL-17F | -0.016 ± 0.055 | -0.0335 ± 0.12 | -0.021 ± 0.1 | -0.104 ± 0.2 | -0.0695 ± 0.07 | -0.061 ± 0.064 | 0.062 ± 0.023 | 0.0585 ± 0.011 | 0.016 ± 0.18 | 0.066 ± 0.56 | -0.385 ± 0.26 | -0.019 ± 0.058 | -0.0085 ± 0.028 | -0.016 ± 0.058 | -0.0575 ± 0.059 | -0.01 ± 0.064 | 0.0315 ± 0.0035 | -0.0245 ± 0.063
